Experimental data reported in patent publication US20240082263A1, “PHARMACEUTICAL COMPOSITION FOR COMBINATION THERAPY COMPRISING MELATONIN AND PROSTAGLANDIN E2 FOR TREATING INTESTINAL EPITHELIAL INJURY AS AN ACTIVE INGREDIENT” (PUSAN NATIONAL UNIVERSITY INDUSTRY-UNIVERSITY COOPERATION …, priority 2022, published 2024).

What was measured:
Assay type in all cases: cell-based
[1] = system: mouse small intestine epithelial organoids; assay: Flow cytometry of Ly6a-expressing cells in organoids; conditions: FIG. 2; for effect of receptor inhibitor on induction of revival stem cells: co-treated to PGE2 alone group and 8M-PDOT and PGE2 combined group, L-161,982 10 μM, PF-04418948 20 μM; for revival stem cell induction (ratio of Ly6a-expressing cells): flow cytometry, 2-iodomelatonin 200 μM, 8M-PDOT 200 μM, Butaprost 10 μM, Cay10598 10 μM, 5 days
Method: (§1) Mouse-derived small intestinal epithelial organoids were obtained as follows. First, small intestine tissue (duodenum about 10-15 cm) was isolated from 8-week-old C57BL/6N mice, and the intestinal lumen was washed with PBS using a 1 ml pipette tip, and the tissue was opened with the lumen facing up, and the remaining mucus, food, and intestinal villi were scraped off and removed. Thereafter, about 25 ml of PBS was filled in a 50 ml tube, and the intestinal tissue was cut to a length of about 2 to 4 mm and washed by shaking vigorously (repeated about 3 to 4 times). The washed intestinal tissue was suspended in 20 ml of Gentle cell dissociation reagent (100-0485, stemcell technologies) and reacted for 15 to 20 minutes while shaking at 20 rpm at room temperature. After the reaction was completed, crypts were separated from the intestinal tissue by vortexing at maximum speed for 5 seconds, and the tissue was removed and centrifuged at 290 g for 5 minutes. The collected cell pellet was resuspended in 10 ml of PBS, centrifuged at 290 g for 5 minutes, and then the cell pellet was suspended in DMEM/F12 medium to confirm the number of crypts. About 500 crypts per 24 well are mixed with 20 μl of cell culture medium (IntestiCult™ Organoid Growth Medium for Mouse, 05005, stemcell technologies) and 20 μl of Matrigel (354230, corning), planted in a dome shape in the center of the well, and placed in a cell culture incubator. After standing for 10 minutes and waiting for the gel to harden, 750 μl of IntestiCult was added and cultured.
In addition, changes in the percentage of cells expressing Ly6a, a specific marker for revival stem cells, were evaluated by flow cytometry. For flow cytometry, mouse small intestine epithelial organoids were treated with melatonin (500 μM) and PGE2 (100 nM) alone or in combination for 5 days, and the organoids were reacted with TrypLE™ Express Enzyme (Thermo Fisher) for 5 minutes at 37° C. to produce single cells. Thereafter, the Ly6a antibody (12-5981-82, Thermo Fisher) fluorescently labeled with PE was diluted 1:250 in PBS containing 3% BSA, and 200 μl of the diluted solution was mixed with the single celled sample and allowed to stand in a dark room at 4° C. for 1 hour. Then, each sample was washed with PBS (300 g, centrifuged for 5 minutes) and immediately analyzed with an Accuri C6 flow cytometer.
In order to further specify the mechanism of inducing revival stem cells, mouse-derived intestinal epithelial organoids were treated with a combination of various melatonin analogues and a specific agonist of the PGE2 receptor. […]

[2] = system: Mouse-derived small intestinal epithelial organoids; assay: Microarray gene expression of revival stem cell markers in organoids; conditions: melatonin 500 μm, PGE2 100 nM, alone or in combination, 5 days
Method: as §1
The obtained mouse-derived small intestinal epithelial organoids were treated with melatonin (500 μm, 14427, Cayman) and PGE2 (prostaglandin E2, 100 nM; 14010, Cayman) alone or in combination for 5 days, and microarray was performed to track gene expression changes. RNA was extracted from the organoids using the RNeasy Kit (Qiagen), cDNA was synthesized using the GeneChip WT (Whole Transcript) Amplification kit, and analyzed using the Clariom™ S Affymetrix GeneChip Array (Affymetrix).

[3] = system: Human-derived intestinal epithelial organoids; assay: Quantitative PCR of Clusterin (CLU) expression in organoids; conditions: same concentrations as in the mouse experiment, FIG. 3
Method: Human-derived intestinal epithelial organoids were treated with melatonin and its analogues and PGE2 to confirm whether revival stem cells were induced as observed in mouse intestinal organoids. In order to obtain intestinal epithelial organoids, donated human colon tissue was cut into a size of about 1 cm 2, placed in PBS containing gentamicin (10 μg/ml, Gibco), and allowed to stand at 4° C. for 30 minutes. Then, the tissue was taken out and the mucous layer was scraped off using forceps, and the process of shaking and washing in PBS was repeated 5 to 6 times, as in the case of mice. After washing, the tissue was put into 25 ml of Gentle cell dissociation reagent and reacted by shaking at 200 rpm for 20 minutes at 37° C. After vortexing at the maximum speed, the crypts were separated and cultured by washing in the same process as in mice. At this time, IntestiCult™ Organoid Growth Medium for Human (06010, stemcell technologies) was used as the culture medium. The obtained human intestinal epithelial organoids were treated alone or in combination with melatonin, 8M-PDOT, and PGE2 at the same concentrations as in the mouse experiment, and then the expression level of Clusterin (CLU) was compared through quantitative PCR. […]

COc1ccc2cc(OCC3(C(=O)O)CN(C(=O)c4ccc(F)cc4)C3)ccc2c1 [PF-04418948]
effect of receptor inhibitor on induction of revival stem cells [1]: no effect

COc1ccc2[nH]cc(CCNC(C)=O)c2c1 [melatonin]
Cldn4 expression FC (fold change) vs control [2]: 1.0013
Clu expression FC (fold change) vs control [2]: 1.2252
Ly6a expression FC (fold change) vs control [2]: 1.1646

CCCC1([C@H](O)C/C=C/[C@H]2[C@H](O)CC(=O)[C@@H]2CCCCCCC(=O)OC)CCC1 [Butaprost]
revival stem cell induction (ratio of Ly6a-expressing cells) [1]: did not show a specific induction effect

CCCCc1nn(-c2ccccc2C(F)(F)F)c(=O)n1Cc1ccc(-c2ccccc2S(=O)(=O)NC(=O)c2sccc2C)cc1 [L-161,982]
effect of receptor inhibitor on induction of revival stem cells [1]: greatly suppressed

O=C1CC[C@H](/C=C/[C@@H](O)Cc2ccccc2)N1CCCCCCc1nn[nH]n1 [Cay10598]
revival stem cell induction (ratio of Ly6a-expressing cells) [1]: induction effect similar to or higher than that of PGE2

CCCCC[C@H](O)/C=C/[C@H]1[C@H](O)CC(=O)[C@@H]1C/C=C\CCCC(=O)O [PGE2, prostaglandin E2]
Cldn4 expression FC (fold change) vs control [2]: 1.9264
Clu expression FC (fold change) vs control [2]: 1.7590
Ly6a expression FC (fold change) vs control [2]: 9.7349
CLU expression [3]: increased
